Data published in patent US12427212B2, “Nectin-4 binding miniproteins, conjugates and uses thereof” (Aktis Oncology, Inc., priority 2023, dated 2025).
Bridges are numbered along the chain shown (N, C = ends). [ ]: non-standard residue; d: D form. The star is where a group is joined. DOTA = O=C(O)CN1CCN(CC(=O)O)CCN(CC(=O)*)CCN(CC(=O)O)CC1; Lys(Me3) = C[N+](C)(C)CCCC[C@H](N)C(=O)O; Cit = NC(=O)NCCC[C@H](N)C(=O)O; PEG4 = NCCOCCOCCOCCOCCC(=O)O

Tests used:
[1] = test system: un-transfected HEK293 cells; test: Background binding to un-transfected HEK293 cells (cell microarray suitability); assay type: cell-based, human; settings: biotin-labeled molecules
Procedure: To evaluate potential off-target binding, six biotin-labeled molecules were tested in a cell microarray platform having 6,416 different human proteins spanning diverse functions and subcellular locations.

in vivo = settings: Sprague Dawley, rat, iv
Procedure: To begin, double jugular vein-cannulated Sprague Dawley rats were dosed with bolus intravenous injections of miniproteins (0.03-0.3 mg/kg) and FITC-sinistrin. Nine blood collection timepoints were taken from 0-2 h, processed to plasma with K2 EDTA, and were frozen for subsequent bioanalysis. Plasma miniprotein concentrations were measured by LC-MS/MS. To control for inter-animal renal clearance differences, and to compare with glomerular filtration rate (GFR), the miniprotein was co-formulated with a molecular marker of GFR, FITC-sinistrin (FS) (Pill et al., 2005). Plasma FITC-sinistrin was measured fluorometrically. All unknown sample measurements were interpolated against known authentic standards spiked into normal rat plasma to calculate concentration. Finally, non-compartmental analysis was performed to estimate plasma pharmacokinetic parameters.

Row | Compound | Background binding to un-transfected HEK293 cells [1] | half-life (in vivo)
1 | CC[C@H](C)[C@@H]1NC(=O)[C@H](Cc2ccc(O)cc2)NC(=O)[C@H](CCC(=O)O)NC(=O)[C@@H]2CSSC[C@@H](C(=O)N[C@@H](CO)C(=O)O)NC(=O)CNC(=O)[C@H](CC(C)C)NC(=O)[C@H](CC(N)=O)NC(=O)[C@H](CC(=O)O)NC(=O)[C@H](CC(C)C)NC(=O)[C@H]([C@@H](C)CC)NC(=O)[C@H](CCC(=O)O)NC(=O)[C@H](CCC(=O)O)NC(=O)[C@H]([C@@H](C)CC)NC(=O)[C@H](CSSC[C@H](NC(=O)CCOCCOCCOCCOCCNC(=O)CCCC[C@@H]3SC[C@@H]4NC(=O)N[C@@H]43)C(=O)N[C@@H](CC(=O)O)C(=O)N[C@@H](Cc3ccc(O)cc3)C(=O)N[C@@H](CC(=O)O)C(=O)N[C@@H](CCC(=O)O)C(=O)N[C@@H](CCC(N)=O)C(=O)N[C@@H](Cc3ccccc3)C(=O)N[C@@H](Cc3ccccc3)C(=O)N[C@@H]([C@@H](C)O)C(=O)N[C@@H](C)C(=O)N[C@@H](CC(C)C)C(=O)N[C@@H](CCCCN)C(=O)N[C@@H](CCCNC(=N)N)C(=O)N[C@@H](CC(C)C)C(=O)N[C@@H](CCCNC(=N)N)C(=O)NCC(=O)NCC(=O)N[C@@H](CC(=O)O)C(=O)N[C@@H]([C@@H](C)CC)C(=O)N2)NC(=O)[C@H](CC(C)C)NC(=O)CNC(=O)[C@@H]2CCCN2C(=O)[C@H](CC(C)C)NC(=O)[C@H](Cc2ccc(O)cc2)NC(=O)[C@H](CCC(N)=O)NC(=O)[C@H](Cc2ccccc2)NC(=O)[C@H](CO)NC(=O)[C@H](C)NC(=O)[C@H](CCC(N)=O)NC1=O [Compound C190] | low-background binding | 
2 | CC[C@H](C)[C@@H]1NC(=O)[C@H](Cc2ccc(O)cc2)NC(=O)[C@H](CC(=O)O)NC(=O)[C@@H]2CSSC[C@@H](C(=O)N[C@@H](CO)C(=O)O)NC(=O)CNC(=O)[C@H](CC(C)C)NC(=O)[C@H](CC(N)=O)NC(=O)[C@H](CC(=O)O)NC(=O)[C@H](CC(C)C)NC(=O)[C@H]([C@@H](C)CC)NC(=O)[C@H](CCC(=O)O)NC(=O)[C@H](CCC(=O)O)NC(=O)[C@H]([C@@H](C)CC)NC(=O)[C@H](CSSC[C@H](NC(=O)CCOCCOCCOCCOCCNC(=O)CN3CCN(CC(=O)O)CCN(CC(=O)O)CCN(CC(=O)O)CC3)C(=O)N[C@@H](CCC(=O)O)C(=O)N[C@@H](Cc3ccc(O)cc3)C(=O)N[C@@H](CC(=O)O)C(=O)N[C@@H](CCC(=O)O)C(=O)N[C@@H](CCC(N)=O)C(=O)N[C@@H](Cc3ccccc3)C(=O)N[C@@H](Cc3ccccc3)C(=O)N[C@@H]([C@@H](C)O)C(=O)N[C@@H](C)C(=O)N[C@@H](CC(C)C)C(=O)N[C@@H](CCCCN)C(=O)N[C@@H](CCCNC(=N)N)C(=O)N[C@@H](CC(C)C)C(=O)N[C@@H](CCCNC(=N)N)C(=O)NCC(=O)N[C@@H](CC(=O)O)C(=O)N[C@@H](CC(=O)O)C(=O)N[C@@H]([C@@H](C)CC)C(=O)N2)NC(=O)[C@H](CC(C)C)NC(=O)CNC(=O)[C@@H]2CCCN2C(=O)[C@H](CC(C)C)NC(=O)[C@H](Cc2ccc(O)cc2)NC(=O)[C@H](CCC(N)=O)NC(=O)[C@H](Cc2ccccc2)NC(=O)[C@H](CO)NC(=O)[C@H](C)NC(=O)[C@H](CCC(N)=O)NC1=O [Compound C237] |  | 28.4 min
3 | CC[C@H](C)[C@@H]1NC(=O)[C@H](Cc2ccc(O)cc2)NC(=O)[C@H](CCC(=O)O)NC(=O)[C@@H]2CSSC[C@@H](C(=O)N[C@@H](CO)C(=O)O)NC(=O)CNC(=O)[C@H](CC(C)C)NC(=O)[C@H](CC(N)=O)NC(=O)[C@H](CC(=O)O)NC(=O)[C@H](CC(C)C)NC(=O)[C@H]([C@@H](C)CC)NC(=O)[C@H](CCC(=O)O)NC(=O)[C@H](CCC(=O)O)NC(=O)[C@H]([C@@H](C)CC)NC(=O)[C@H](CSSC[C@H](NC(=O)CCOCCOCCOCCOCCNC(=O)CN3CCN(CC(=O)O)CCN(CC(=O)O)CCN(CC(=O)O)CC3)C(=O)N[C@@H](CC(=O)O)C(=O)N[C@@H](Cc3ccc(O)cc3)C(=O)N[C@@H](CC(=O)O)C(=O)N[C@@H](CCC(=O)O)C(=O)N[C@@H](CCC(N)=O)C(=O)N[C@@H](Cc3ccccc3)C(=O)N[C@@H](Cc3ccccc3)C(=O)N[C@@H]([C@@H](C)O)C(=O)N[C@@H](C)C(=O)N[C@@H](CC(C)C)C(=O)N[C@@H](CCCCN)C(=O)N[C@@H](CCCNC(=N)N)C(=O)N[C@@H](CC(C)C)C(=O)N[C@@H](CCCNC(=N)N)C(=O)NCC(=O)NCC(=O)N[C@@H](CC(=O)O)C(=O)N[C@@H]([C@@H](C)CC)C(=O)N2)NC(=O)[C@H](CC(C)C)NC(=O)CNC(=O)[C@@H]2CCCN2C(=O)[C@H](CC(C)C)NC(=O)[C@H](Cc2ccc(O)cc2)NC(=O)[C@H](CCC(N)=O)NC(=O)[C@H](Cc2ccccc2)NC(=O)[C@H](CO)NC(=O)[C@H](C)NC(=O)[C@H](CCC(N)=O)NC1=O [Compound C240] |  | 29.7 min
4 | CC[C@H](C)[C@@H]1NC(=O)[C@H](Cc2ccc(O)cc2)NC(=O)[C@H](CCC(=O)O)NC(=O)[C@@H]2CSSC[C@@H](C(=O)N[C@@H](CO)C(=O)O)NC(=O)CNC(=O)[C@H](CC(C)C)NC(=O)[C@H](CC(N)=O)NC(=O)[C@H](CC(=O)O)NC(=O)[C@H](CC(C)C)NC(=O)[C@H]([C@@H](C)CC)NC(=O)[C@H](CCC(=O)O)NC(=O)[C@H](CCC(=O)O)NC(=O)[C@H]([C@@H](C)CC)NC(=O)[C@H](CSSC[C@H](NC(=O)CCOCCOCCOCCOCCNC(=O)CN3CCN(CC(=O)O)CCN(CC(=O)O)CCN(CC(=O)O)CC3)C(=O)N[C@@H](CC(=O)O)C(=O)N[C@@H](Cc3ccc(O)cc3)C(=O)N[C@@H](CC(=O)O)C(=O)N[C@@H](CCC(=O)O)C(=O)N[C@@H](CCC(N)=O)C(=O)N[C@@H](Cc3ccccc3)C(=O)N[C@@H](Cc3ccccc3)C(=O)N[C@@H]([C@@H](C)O)C(=O)N[C@@H](C)C(=O)N[C@@H](CC(C)C)C(=O)N[C@@H](C)C(=O)N[C@@H](CCCNC(=N)N)C(=O)N[C@@H](CC(C)C)C(=O)N[C@@H](CCCNC(=N)N)C(=O)NCC(=O)N[C@@H](C)C(=O)N[C@@H](CC(=O)O)C(=O)N[C@@H]([C@@H](C)CC)C(=O)N2)NC(=O)[C@H](CCC(=O)O)NC(=O)CNC(=O)[C@@H]2CCCN2C(=O)[C@H](CC(C)C)NC(=O)[C@H](Cc2ccc(O)cc2)NC(=O)[C@H](CCC(N)=O)NC(=O)[C@H](Cc2ccccc2)NC(=O)[C@H](CO)NC(=O)[C@H](C)NC(=O)[C@H](CCC(N)=O)NC1=O [Compound C246] |  | 38 min
5 | CC[C@H](C)[C@@H]1NC(=O)[C@H](Cc2ccc(O)cc2)NC(=O)[C@H](CCC(=O)O)NC(=O)[C@@H]2CSSC[C@@H](C(=O)N[C@@H](CO)C(=O)O)NC(=O)CNC(=O)[C@H](CC(C)C)NC(=O)[C@H](CC(N)=O)NC(=O)[C@H](CC(=O)O)NC(=O)[C@H](CC(C)C)NC(=O)[C@H]([C@@H](C)CC)NC(=O)[C@H](CCC(=O)O)NC(=O)[C@H](CCC(=O)O)NC(=O)[C@H]([C@@H](C)CC)NC(=O)[C@H](CSSC[C@H](NC(=O)CCOCCOCCOCCOCCNC(=O)CN3CCN(CC(=O)O)CCN(CC(=O)O)CCN(CC(=O)O)CC3)C(=O)N[C@@H](CC(=O)O)C(=O)N[C@@H](Cc3ccc(O)cc3)C(=O)N[C@@H](CC(=O)O)C(=O)N[C@@H](CCC(=O)O)C(=O)N[C@@H](CCC(N)=O)C(=O)N[C@@H](Cc3ccccc3)C(=O)N[C@@H](Cc3ccccc3)C(=O)N[C@@H]([C@@H](C)O)C(=O)N[C@@H](C)C(=O)N[C@@H](CC(C)C)C(=O)N[C@@H](CCCCN)C(=O)N[C@@H](CCCNC(=N)N)C(=O)N[C@@H](CC(C)C)C(=O)N[C@@H](CCCNC(=N)N)C(=O)NCC(=O)N[C@@H](C)C(=O)N[C@@H](CC(=O)O)C(=O)N[C@@H]([C@@H](C)CC)C(=O)N2)NC(=O)[C@H](CCC(=O)O)NC(=O)CNC(=O)[C@@H]2CCCN2C(=O)[C@H](CC(C)C)NC(=O)[C@H](Cc2ccc(O)cc2)NC(=O)[C@H](CCC(N)=O)NC(=O)[C@H](Cc2ccccc2)NC(=O)[C@H](CO)NC(=O)[C@H](C)NC(=O)[C@H](CCC(N)=O)NC1=O [Compound C270] |  | 28.3 min
6 | {DOTA-PEG4}-CDYDEQFFTALA[Cit]LRGGDICEYIQA[Lys(Me3)]FQYLPGLCIEEILDNLGCS-OH (disulfide 1-34, 20-44 (inferred)) [Compound C261] |  | 28.7 min
7 | {DOTA-PEG4}-CEYDEEFFTALARLRGGDICQYIQAKFQYLPGQCIEEILDNLGCS-OH (disulfide 1-34, 20-44) [Compound C242] |  | 29.7 min
8 | {DOTA-PEG4}-CEYDEEFFTALKRLRGGDICYYIQAKFQYLPKLCIEEILDNLGCS-OH (disulfide 1-34, 20-44) [Compound C118] |  | 19.7 min
9 | {DOTA-PEG4}-CEYDEQFFTALARLRGGDICEYIQAKFQYLPGLCIEEILDNLGCS-OH (disulfide 1-34, 20-44) [Compound C219] |  | 25.4 min
10 | {DOTA-PEG4}-CEYDEQFFTALKALRGGDICYYIQASFNYLPDLCIEEILDNLGCS-OH (disulfide 1-34, 20-44 (inferred)) [Compound C114] |  | 25.5 min
